According to article PMC9606921, “Phytochemical Investigation and Biological Studies on Selected Searsia Species” (Plants, 2022):
Values joined by “and” are separate entries in the source; they are usually repeats but may differ in a detail not shown here. Equal entries are not always repeated.

How the values were obtained:
[1] = Ferric ion reducing antioxidant power (FRAP) assay; details: means ± SDs; ascorbic acid equivalents; read at 593 nm
Procedure: The FRAP values were generated by comparing the absorbance changes in the test mixtures with those obtained from increasing concentrations of Fe^3+ and were expressed as µM AAE/g of the samples (Figure 3).
Preparation of the FRAP reagent in a 50 mL conical flask was composed of 30 mL Acetate buffer (300 mM, pH 3.6; 1.627 g Sodium acetate + 16 mL Glacial acetic acid and made up to 1 L with distilled water) + 3 mL TPTZ 10 mM solution (0.0093 g TPTZ and 3 mL of 40 mM HCl in 15 mL flask) + 3 mL FeCl3 solution (0.054 g FeCl3.6H2O and 10 mL distilled water) and 6.6 mL of distilled water. A control solution was prepared by dissolving 0.00352 g of Ascorbic acid in 50 mL, diluted to the mark with distilled water. A standard curve was prepared as per the method described by Benzie and Strain, 1996. L-Ascorbic acid (Sigma Aldrich, Cape Town, South Africa) was used as a standard, with concentrations varying between 0 and 1000 µM. Dilutions were made for the extracts that were highly concentrated, and dilution factors were noted and considered in calculations for the relevant extracts. In a 96-well clear microplate, 10 µL of the stock solutions of the extracts (hexane, dichloromethane, ethyl acetate, methanol, and butanol) of three plants were mixed with a 300 µL FRAP reagent. The plate was read at a wavelength of 593 nm in a multiplate reader. […]

[2] = Trolox equivalent antioxidant capacity (ABTS/TEAC) assay; details: means ± SDs; ABTS, 734 nm, 30 min
Procedure: The antioxidant power of the extracts was examined using the ABTS radical decolorization assay, which measures the relative antioxidant ability to scavenge the radical ABTS^+ (2.2′-azinobis (3-ethylbenzothiazoline-6-sulfonic acid)), a blue-green chromophore with maximum absorption at 734 nm that decreases in its intensity in the presence of antioxidants.
The ABTS mix solution was diluted with ethanol to read a start-up absorbance of approximately 2.0 (±0.1). The test extracts were prepared by dissolving 1 mg of an extract in 1 mL of methanol, allowed to react with 300 µL ABTS solution in the dark at room temperature for 30 min. The absorbance was measured at 734 nm at 25 °C in a multiplate reader. The results were expressed as µM Trolox equivalents per milligram dry weight (µM TE/g) of the test samples.

[3] = Oxygen radical absorbance capacity (ORAC) assay; details: means ± SDs; Trolox equivalents per g of plant extract
Procedure: ORAC was determined according to a previously described method [46], with some modifications [47]. Fluorescein was used as the fluorescent probe. The loss of fluorescence of fluorescein was an indication of the extent of oxidation through reaction with peroxyl or hydroxyl radicals. The protective effect of an antioxidant was measured by assessing the fluorescence area under the curve plot relative to that of a blank in which no antioxidant was present. The ORAC value was calculated by dividing the area under the sample curve by the area under the Trolox curve, with both areas being corrected by subtracting the area under the blank curve.

[4] = biological target: T1, α-amylase (procaine pancreas) (Sus scrofa, UniProt P00690); assay: Alpha amylase inhibitory assay; type: biochemical; details: for IC50: concentrations 125.0-1.95 µg/mL, means ± SDs; for activity in screening against alpha amylase: isolated compounds tested at 125.0 µg/mL
T1 construct: purchased Sigma-Aldrich, South Africa; host or cells: pancreas
T1 sequence (P00690 16-511): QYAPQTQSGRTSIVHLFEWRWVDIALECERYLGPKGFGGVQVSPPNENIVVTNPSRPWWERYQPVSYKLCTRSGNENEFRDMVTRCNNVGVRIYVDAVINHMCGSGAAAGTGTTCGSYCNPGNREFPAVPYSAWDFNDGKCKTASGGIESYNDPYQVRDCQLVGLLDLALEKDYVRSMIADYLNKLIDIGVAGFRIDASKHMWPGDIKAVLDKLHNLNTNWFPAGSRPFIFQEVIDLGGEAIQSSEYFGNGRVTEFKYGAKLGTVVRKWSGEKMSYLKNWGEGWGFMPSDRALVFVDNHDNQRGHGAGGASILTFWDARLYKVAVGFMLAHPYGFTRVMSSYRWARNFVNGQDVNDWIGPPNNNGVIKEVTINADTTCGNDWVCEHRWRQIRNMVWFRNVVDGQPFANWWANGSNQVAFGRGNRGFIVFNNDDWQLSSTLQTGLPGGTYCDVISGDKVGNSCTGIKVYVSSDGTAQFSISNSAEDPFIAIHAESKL
Procedure: (§1) The extracts of Searsia species were screened to determine their inhibition activities with respect to enzymes relevant to the management of diabetes. The extracts were tested at 2.0 mg/mL.
(§2) The isolated compounds from the three plants were tested against alpha glucosidase and alpha amylase at 125.0 µg/mL to determine their inhibitory activities.
(§3) Standards (purity > 99.0%) for antioxidants, Trolox (6-hydroxyl-2,5,7,8-tetramethylchroman-2-carboxylic acid; Saarchem, Mumbai, India), and other reagents, including ABTS (2,2′-azino-bis (3-ethylbenzo thiazoline-6-sulfonic acid) diammonium salt (Sigma), potassium-peroxodisulphate (Merck), Ethanol (Saarchem), fluorescein sodium salt (Sigma), AAPH (2,2′-azobis (2-methylpropionamidine) dihydrochloride (Aldrich), Sodium dihydrogen orthophosphate dihydrate ([…], Merck), PCA (perchloric acid, Saarchem), TPTZ (2,4,6-tri[2-pyridyl]-s-triazine), iron (III) chloride hexahydrate, and copper sulphate, were purchased from Sigma-Aldrich, Inc. (St. Louis, MO, USA). L-Ascorbic acid was procured from Sigma Aldrich, Cape Town, South Africa. Antioxidant assays, including FRAP and TEAC assays, were performed using a Multiskan spectrum plate reader, while an automated ORAC assay was performed with a Floroskan spectrum plate reader. For the enzyme inhibition studies, α-glucosidase (Saccharomyces cerevisiae), α-amylase ([…]) and 3, 5, di-nitro salicylic acid (DNS), p-nitro-phenyl-α-D-glucopyranoside (p-NPG), sodium carbonate (Na2CO3), soluble starch, sodium dihydrogen phosphate, and disodium hydrogen phosphate were purchased from Sigma-Aldrich, South Africa.
The alpha amylase inhibitory assays of the extracts were carried out according to the standard method, with minor modifications. In a 96-well plate, the reaction mixture, containing 50 μL phosphate buffer (100 mM, pH = 6.8), 10 μL alpha amylase (2 U/mL), and 20 μL of plant extracts at 2.0 mg/mL, was preincubated at 37°C for 20 min. Then, 20 μL of 1% soluble starch (100 mM phosphate buffer pH 6.8) was added as a substrate and incubated further at 37 °C for 30 min; 100 μL of the DNS colour reagent was then added and boiled for 10 min. The absorbance of the resulting mixture was measured at 540 nm using a multiplate reader. […] The extracts or isolated compounds were measured in triplicate. The results were reported as half-maximal inhibitory (IC50) concentrations in μM. The results for both alpha amylase and alpha glucosidase were calculated using equation 1.

[5] = biological target: T2, α-glucosidase (Saccharomyces cerevisiae) (Saccharomyces cerevisiae, UniProt P53341); assay: Alpha glucosidase inhibitory activity; type: biochemical; details: for IC50: IC50 on alpha glucosidase, concentrations 125.0-1.95 µg/mL, means ± SDs; for activity in screening against alpha glucosidase: isolated compounds tested at 125.0 µg/mL
T2 construct: purchased Sigma-Aldrich, South Africa
T2 sequence (P53341 whole entry): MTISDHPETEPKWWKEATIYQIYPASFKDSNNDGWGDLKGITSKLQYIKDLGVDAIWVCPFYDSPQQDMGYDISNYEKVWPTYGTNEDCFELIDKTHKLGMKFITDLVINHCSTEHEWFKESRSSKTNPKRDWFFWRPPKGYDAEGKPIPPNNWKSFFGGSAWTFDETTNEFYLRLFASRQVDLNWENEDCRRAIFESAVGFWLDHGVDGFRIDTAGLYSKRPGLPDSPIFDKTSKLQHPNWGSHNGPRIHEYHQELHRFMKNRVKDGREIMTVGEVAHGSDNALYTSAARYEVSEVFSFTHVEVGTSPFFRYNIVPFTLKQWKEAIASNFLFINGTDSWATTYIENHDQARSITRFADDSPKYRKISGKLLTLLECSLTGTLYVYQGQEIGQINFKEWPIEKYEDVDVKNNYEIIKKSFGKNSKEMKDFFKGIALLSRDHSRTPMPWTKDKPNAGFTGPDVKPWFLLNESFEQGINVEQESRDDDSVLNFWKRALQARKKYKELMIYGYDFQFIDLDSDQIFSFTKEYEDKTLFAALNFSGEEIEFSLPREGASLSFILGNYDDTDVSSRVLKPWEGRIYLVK
Procedure: as §1, §2, §3
The alpha glucosidase inhibitory activities of the extracts were determined according to the standard method, with minor modifications. In a 96-well plate, a reaction mixture containing 50 μL phosphate buffer (100 mM, pH = 6.8), 10 μL alpha glucosidase (1 U/mL), and 20 μL of extract at 2.0 mg/mL was pre-incubated at 37 °C for 15 min. Then, 20 μL P-NPG (5 mM) was added as a substrate and incubated further at 37 °C for 20 min. The reaction was stopped by adding 50 μL Na2CO3 (0.1 M). The absorbance of the released p-nitrophenol was measured at 405 nm using a Multiplate Reader. The results were reported as half-maximal inhibitory (IC50) concentrations in μM. […] Each extract was tested in triplicate. (1) Inhibitory activity (%)=1 − As/Ac×100 where As is the absorbance in the presence of the test substance and Ac is the absorbance of the control.

Row | SMILES | FRAP [1] [µM AAE/g] | TEAC [2] [µM TE/g] | ORAC [3] [µM TE/g] | IC50 [4] [µM] | activity in screening against alpha amylase [4] | IC50 [5] | activity in screening against alpha glucosidase [5]
1 | O=C1O[C@H]([C@@H](O)CO)C(O)=C1O [Ascorbic acid, L-Ascorbic acid] | 390.12 ± 09.12 | – | – | – | – | – | –
2 | Cc1c(C)c2c(c(C)c1O)CCC(C)(C(=O)O)O2 (centres unmarked) [Trolox, 6-hydroxyl-2,5,7,8-tetramethylchroman-2-carboxylic acid] | – | 205.01 ± 05.03 | 14.2 ± 04.01 | – | – | – | –
3 | O=c1cc(-c2ccc(O)c(-c3c(O)cc(O)c4c(=O)cc(-c5ccc(O)cc5)oc34)c2)oc2cc(O)cc(O)c12 [Compound C7, amentoflavone] | – | – | – | 36.8 | showed activity | 10.3 µM | showed activity
4 | CC1(C)C=C2[C@H]3CC[C@@H]4[C@@]5(C)CCC(=O)C(C)(C)[C@@H]5CC[C@@]4(C)[C@]3(C)CC[C@@]2(C(=O)O)CC1 [Compound C1, moronic acid] | – | – | – | 44.2 | showed activity | 23.4 µM and 23.2 µM | showed activity
